# Assay results taken from US8575094B2, “Use of type-B lantibiotic-based compounds having antimicrobial activity” (Novacta Biosystems Limited, priority 2007, dated 2013).
# Like-named read-outs stand apart in the source and are kept apart here.
# Tests used:
# C. difficile spores = assay: Sporicidal activity: viable counts of C. difficile spores exposed to antibiotics; assay type: cell-based; conditions: for Viable counts of C. difficile spores: antibiotic at 100 µg/ml
# From the text: An agent capable of killing, or preventing the successful germination of C. difficile spores would therefore be of considerable interest. To determine the effects of type B lantibiotics on C. difficile spores, suspensions of spores were exposed to antibiotics ([…]) and aliquots were taken at appropriate time points. The spores in each aliquot were filtered off and plated out on to Brazier's agar.
# [1] = Stability in Simulated Intestinal Fluid (SIF), HPLC; assay type: in vitro ADME; conditions: 37° C.
# From the text: (§1) The preferred method of dosage for the treatment of C. difficile infections is via the oral route of administration. […] Whilst the oral absorption of peptides and related substances of a molecular weight >1,000 Daltons is generally low, metabolism through peptidase enzymes is generally rapid and indeed forms an essential part of the normal digestion of food. The susceptibility of peptides towards enzymatic digestion in the stomach and intestine can reliably be estimated in vitro by measuring their stability in Simulated Gastric Fluid USP ([…], pepsin in saline, pH 1.2) and Simulated Intestinal Fluid USP (SIF, pancreatin in aqueous potassium dihydrogen phosphate, pH 6.8).
# (§2) Nisin and mersacidin were tested for their susceptibility towards enzymatic digestion in the stomach and intestine. The SGF and SIF were based on the standard USP solutions for simulated gastric and simulated intestinal fluids and their activity confirmed against Bovine Serum Albumin (Hilger et al, 2001). The compounds were incubated in SGF or SIF at 37° C. and their concentrations quantified by analytical HPLC (UV detection at 210 nm). The potential degradation of each compound was also monitored qualitatively by measuring in vitro antibacterial activity against Micrococcus luteus.
# Micrococcus luteus = assay: In vitro antibacterial activity against Micrococcus luteus during SGF/SIF incubation; assay type: cell-based; conditions: incubation in SGF or SIF at 37° C.
# Method: as §2
# [2] = Stability in Simulated Gastric Fluid (SGF), HPLC; assay type: in vitro ADME; conditions: 37° C.
# From the text: as §1, §2
# [3] = system: Bifidobacterium longum NCTC 11818
# [4] = system: Bacteroides fragilis NCTC 9343
# Clostridium difficile = assay: microbe, parasite or virus in culture; assay type: cell-based; conditions: for MIC: Clostridioides difficile, read-out: Minimal Inhibitory Concentration (MIC)
# From the text: Compounds I to VII were screened against twelve clinical isolates of Clostridium difficile.
# In addition, compounds L to LIII were screened against […] isolates of Clostridium difficile.
# [5] = system: C. difficile strain VPI 10463; assay type: in vivo; conditions: hamster, three times daily at 50 mg/kg/day, 5-day dosing period
# Method: The in vivo efficacy of two type B Lantibiotics in the treatment of C. difficile infections was evaluated in the standard animal model for CDAD: clindamycin-induced cecitis in hamster (FIG. 3). Four groups of six animals were dosed orally with approximately 10^7 cells of C. difficile strain VPI 10463 and 24 hours later with a subcutaneous dose of 10 mg/kg clindamycin phosphate.
# [6] = system: Bacteroides thetaiotaomicron NCTC 10582
# [7] = system: Bifidobacterium adolescentis NCTC 11814
# [8] = rat, 100 mg/kg oral
# Method: Male Sprague-Dawley rats were dosed with compound VII at 100 mg/kg via the oral route. Faeces and urine were collected over a 48 h period in two batches (24 h and 48 h post dose). Blood samples were taken at various time points for the first 24 h.
# C. difficile 630 = conditions: hamster, three times daily at 50 mg/kg/day for 5 days, groups of 6
# Method: The in vivo efficacy of compound VII in the treatment of C. difficile infections was evaluated in the clindamycin-induced cecitis model in hamster (FIG. 4). Groups of 6 animals were given a subcutaneous dose of 10 mg/kg clindamycin phosphate. 24 hours later, the animals received oral inocula of ˜10^4 spores of C. difficile 630, prepared by heating overnight BHI culture fluids to 56° C. for 10 min and recovering spores by centrifugation and re-suspension of the pellet in an equal volume of PBS.
structure (smiles),measurement,setting,value
"C=C1NC(=O)[C@@H]2NC(=O)[C@H](CC(C)C)NC(=O)[C@H](NC(=O)[C@@H]3CS[C@@H](C)[C@@H](NC(=O)[C@H](Cc4ccccc4)NC(=O)[C@@H]4NC(=O)[C@@H](N)CS[C@H]4C)C(=O)N[C@@H](CC(C)C)C(=O)N4CCC[C@H]4C(=O)NCC(=O)NCC(=O)NCC(=O)NCC(=O)N[C@@H](C(C)C)C(=O)N3)[C@H](C)SC[C@H](NC(=O)[C@H](CCC(=O)O)NC1=O)C(=O)N[C@@H]([C@@H](C)CC)C(=O)N/C=C\S[C@H]2C [Compound I, Mersacidin]",Effect on C. difficile spore viability / germination,C. difficile spores,inactivate or prevent C. difficile spores from germinating
same,Viable counts of C. difficile spores,C. difficile spores; time 0 h,177
same,Viable counts of C. difficile spores,C. difficile spores; time 4 h,0
same,Viable counts of C. difficile spores,C. difficile spores; time 8 h,0
same,Viable counts of C. difficile spores,C. difficile spores; time 24 h,0
same,Stability (degradation) in Simulated Intestinal Fluid,[1],essentially stable
same,In vitro activity against M. luteus during the course of the experiment,Micrococcus luteus,remained unaltered
same,Stability (degradation) in Simulated Gastric Fluid,[2],None of the compounds showed appreciable degradation
"C=C1NC(=O)[C@@H]2NC(=O)[C@H](CC(C)C)NC(=O)[C@H](NC(=O)[C@@H]3CS[C@@H](C)[C@@H](NC(=O)[C@H](Cc4c[nH]c5ccccc45)NC(=O)[C@@H]4NC(=O)[C@@H](N)CS[C@H]4C)C(=O)N[C@@H](CC(C)C)C(=O)N4CCC[C@H]4C(=O)NCC(=O)NCC(=O)NCC(=O)NCC(=O)N[C@@H](C(C)C)C(=O)N3)[C@H](C)SC[C@H](NC(=O)[C@H](CCC(=O)O)NC1=O)C(=O)N[C@@H](C(C)CC)C(=O)N/C=C\S[C@H]2C (stereo partly shown) [Compound IV, F3W Mersacidin]",Minimal Inhibitory Concentration (MIC),[3],16 µg/mL
same,Minimal Inhibitory Concentration (MIC),[4],32 µg/mL
same,Minimal Inhibitory Concentration (MIC),E. coli,>64 µg/mL
same,Minimal Inhibitory Concentration (MIC),Clostridium difficile,2 µg/mL
same,Minimal Inhibitory Concentration (MIC),E. faecium,32 µg/mL
same,Survival of infected animals,[5],survived for the duration of the entire 5-day dosing period
same,Minimal Inhibitory Concentration (MIC),[6],16 µg/mL
same,Minimal Inhibitory Concentration (MIC),[7],32 µg/mL
"CC[C@H](C)[C@@H]1NC(=O)[C@H](C(C)C)NC(=O)[C@@H]2NC(=O)CNC(=O)[C@@H]3CS[C@@H](C)[C@@H](NC(=O)[C@@H]4CSC[C@@H](N)C(=O)N[C@@H](CO)C(=O)NCC(=O)N[C@@H](Cc5c[nH]c6ccccc56)C(=O)N[C@@H](C(C)C)C(=O)N4)C(=O)N[C@@H](CC(C)C)C(=O)N[C@@H](C(=O)N[C@@H]([C@@H](C)CC)C(=O)N[C@@H](CCC(=O)O)C(=O)N3)[C@H](C)SC[C@H](NC1=O)C(=O)N[C@@H](C)C(=O)N[C@H](C(=O)NCCO)C[S+]([O-])[C@H]2C (stereo partly shown) [Compound VI, Actagardine N-[2-ethanolamine] monocarboxamide]",Stability (degradation) in Simulated Intestinal Fluid,[1],essentially stable
same,Survival of infected animals,[5],survived for the duration of the entire 5-day dosing period
same,Stability (degradation) in Simulated Gastric Fluid,[2],None of the compounds showed appreciable degradation
"CC[C@H](C)[C@@H]1NC(=O)[C@@H]2NC(=O)[C@H](CC(C)C)NC(=O)[C@H](NC(=O)[C@@H]3CSC[C@@H](N)C(=O)N[C@@H](CO)C(=O)NCC(=O)N[C@@H](Cc4c[nH]c5ccccc45)C(=O)N[C@@H](C(C)C)C(=O)N3)[C@H](C)SC[C@H](NC(=O)[C@H](CCC(=O)O)NC1=O)C(=O)NCC(=O)N[C@H]1C(=O)N[C@@H](CC(C)C)C(=O)N[C@@H](C(C)C)C(=O)N[C@@H](CS[C@H]2C)C(=O)N[C@@H](C)C(=O)N[C@H](C(=O)NCCO)CS[C@H]1C [Compound VII, Deoxy-actagardine B N-[2-ethanolamine] monocarboxamide]",Material recovered from plasma,[8],No material was recovered
same,Material recovered from urine,[8]; urine collected over 48 h,No material was recovered
same,Survival of infected animals,C. difficile 630,all 6 of the infected mice survived
same,Stability (degradation) in Simulated Gastric Fluid,[2],None of the compounds showed appreciable degradation
Cc1ncc([N+](=O)[O-])n1CCO [Metronidazole],Effect on C. difficile spore viability / germination,C. difficile spores,no significant effect on spore viability
same,Viable counts of C. difficile spores,C. difficile spores; time 0 h,177
same,Viable counts of C. difficile spores,C. difficile spores; time 4 h,154
same,Viable counts of C. difficile spores,C. difficile spores; time 8 h,144
same,Viable counts of C. difficile spores,C. difficile spores; time 24 h,120
same,MIC,Clostridium difficile; C. difficile strain 027C,0.25 µg/mL
same,MIC,Clostridium difficile; C. difficile strain 27SM,0.125 µg/mL
same,MIC,Clostridium difficile; C. difficile strain 19126,0.25 µg/mL
same,MIC,Clostridium difficile; C. difficile strain 37779,0.125 µg/mL
same,MIC,Clostridium difficile; C. difficile strain B32,0.125 µg/mL
same,MIC,Clostridium difficile; C. difficile strain E4,0.25 µg/mL
same,MIC,Clostridium difficile; C. difficile strain E16,8 µg/mL
same,MIC,Clostridium difficile; C. difficile strain E101,0.125 µg/mL
same,MIC,Clostridium difficile; C. difficile strain P24,0.25 µg/mL
same,MIC,Clostridium difficile; C. difficile strain P49,0.125 µg/mL
same,MIC,Clostridium difficile; C. difficile strain P59,0.25 µg/mL
same,MIC,Clostridium difficile; C. difficile strain P62,0.25 µg/mL
